System: Spodoptera frugiperda
Assay: Lepidoptera artificial diet assay
Assay type: in vivo
Details: unformulated peptide, final concentration 1×10^−4 M in diet, one L1 larva per cell, n=10, 168 hrs; compared to negative control vehicle and DDT
Description: One larva was assayed per cell. (n=10). Frontier Lepidoptera artificial diet was made up by preparing agar at 1% and then mixing it with artificial diet powder. Peptide solution was aliquoted in 10 cells and diet poured straight onto it. The final concentration of the peptide was 1×10^−4 M, and each peptide was aliquoted in 10 cells. Once the diet solidified and cooled down, one L1 larvae was infested in each cell. The trays were sealed with heat and let larva were allowed to develop for 168 hrs. Finally, pupation and mortality were scored for. Lepidoptera artificial diet assays were performed with SB-P-80, and compared to a negative control vehicle and the insecticide dichlorodiphenyltrichloroethane (DDT).

For “[Hy]-NADEDQQQSVDFTPRL-[NH2] (H-NADEDQQQSVDFTPRL-NH2) [SB-P-80, pyrokinin peptide according to the invention]”, the “activity (pupation and mortality scored) in lepidoptera artificial diet assay” value was “much higher activity”.
